Assays:
[1] = test system: organotypic hippocampal cultures; set-up: method as in PMID 37775304, PMID 37947648; settings: nanomolar doses; ref [24],[25]; cited from earlier work
[2] = test system: HepG2 hepatocarcinoma cells; assay: MTT cell viability assay, MTT added directly to treated media; format: cell-based, human; settings: 5% DMSO
Method: The cytotoxicity of our compounds was assessed using the well-established MTT assay. HepG2 hepatocarcinoma cells were cultured in Minimum Essential Medium (MEM) (Euroclone, Pero, Italy), supplemented with 10% fetal bovine serum (Euroclone, Pero, Italy), 100 U/mL penicillin, and 100 µg/mL streptomycin sulfate, at 37 °C in a humidified incubator in 5% CO2 atmosphere. For the MTT assays, these cells were cultured up to about 90% confluence and were then seeded at a concentration of 20,000 cells per well in 96-well plates. After 24 h, the culture medium was replaced with solutions at various concentrations of each compound in MEM/DMSO 5% (v/v). Control wells were incorporated in the experimental design, consisting of vehicle (MEM/DMSO 5%) and pure medium controls.
In the first round of cytotoxicity assays, 0.5 mg/mL MTT was added to each well 2 or 24 h from treatment and left to incubate for 3–5 h. In the second round of cytotoxicity assays, at 2 or 24 h after treatment, treated media were removed, the cells were washed once in PBS, and fresh medium containing 0.5 mg/mL MTT was added to each well and left to incubate for 3–5 h.
Subsequently, the supernatant was removed, and the formazan crystals were dissolved in DMSO/EtOH 1:1 (100 µL/well). Absorbance values were then recorded from each well using a Victor 3 plate reader (PerkinElmer, Shelton, CT, USA) at 570 nm. All presented data were obtained from 3 to 5 experiments performed in triplicate. Cell viability values are expressed as mean ± S.E.M. and were plotted using GraphPad Prism 7.
Next, we assessed H2S release in a biological environment using human hepatocarcinoma HepG2 cells as a model. The intracellular release of H2S was detected with the WSP-1 probe, a turn-on fluorescent probe that selectively and irreversibly reacts with H2S. Considering that a high micromolar concentration of the test compounds is required to obtain a robust fluorescent signal, we first evaluated the compounds’ cytotoxicity after 2 h and 24 h of incubation with the MTT assay in HepG2 cells. […] We accounted for this by adding a vehicle control with 5% DMSO and a control without DMSO to our experimental design.

[3] = Cell-free MTT-based H2S release assay; format: physicochemical; settings: 24 h incubation in MEM with 10% DMSO
Method: Solutions at different concentrations of each compound in 100 µL of serum-free MEM/10% DMSO with 0.5 mg/mL 3-(4,5-dimethylthiazol-2yl)-2,5-diphenyltetrazolium bromide (MTT) were incubated for 5 h or 24 h in a humidified incubator at 37 °C in 5% CO2 atmosphere. The experimental design comprised blank wells containing only medium and MTT, and a H2S calibration curve obtained by incubating nine solutions at decreasing concentrations (100 µM to 0.01 µM) of NaHS in medium and MTT. At the end of incubation time, the supernatant was removed, the […] crystals were dissolved in 100 µL DMSO/EtOH (1:1 v/v), and absorbance values were read using a Victor 3 plate reader (PerkinElmer, Shelton, CT, USA) at 570 nm. H2S values are expressed as mean ± S.E.M. of the results of three independent experiments conducted in triplicate, and were plotted using GraphPad Prism 7.
To decipher such results and considering the redox properties of H2S, we questioned if H2S released by our compounds in the culture media could interfere with the conversion of MTT (3-[4,5-dimethylthiazol-2-yl]-2,5-diphenyl tetrazolium bromide) to formazan, which is usually related to cell viability. Thus, we ran cell-free experiments in which MTT was used as the substrate to capture the reductive action of H2S. We found, in agreement with Gerő et al., that some of our thioureas and thioamides reduced MTT to formazan after 24 h incubation in MEM with 10% DMSO.

[4] = target: T1, FPR2 (Homo sapiens, UniProt P25090); assay: Ca2+ mobilization (agonist activity) in FPR2-HL60 cells; settings: for fold less potent at FPR2 than the corresponding urea/amide: ratio of FPR2 EC50 vs 3b, 3c or 4b; for Ca2+ Mobilization HL60-FPR2 Efficacy: response to 5 nM WKYMVM = 100%
T1 sequence (P25090 1-351): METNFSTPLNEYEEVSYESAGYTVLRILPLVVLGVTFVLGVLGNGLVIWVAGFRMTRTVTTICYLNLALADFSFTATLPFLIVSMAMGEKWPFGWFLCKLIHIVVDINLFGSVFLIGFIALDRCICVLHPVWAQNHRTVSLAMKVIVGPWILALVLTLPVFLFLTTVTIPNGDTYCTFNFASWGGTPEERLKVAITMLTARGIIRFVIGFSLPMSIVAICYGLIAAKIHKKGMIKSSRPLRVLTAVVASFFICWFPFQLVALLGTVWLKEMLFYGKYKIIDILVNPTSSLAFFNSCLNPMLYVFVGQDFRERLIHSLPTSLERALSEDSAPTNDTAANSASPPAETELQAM

[5] = test system: HepG2 cells; assay: Intracellular H2S release with WSP-1 probe; format: cell-based, human
Method: All cell culture reagents were purchased from S.I.A.L. S.r.l. (Rome, Italy). WSP-1 (Washington State Probe-1, 3′-methoxy-3-oxo-3H-spiro[isobenzofuran-1,9′-xanthen]-6′-yl 2-(pyridine-2-yl-disulfanyl benzoate), was obtained from Cayman Chemical (Cayman, Ann Arbor, MI, USA). HepG2, human hepatocellular carcinoma cells, was obtained from American Type Culture Collection (ATCC, Bethesda, MD, USA). Human hepatocellular carcinoma cells (HepG2) were cultured in Minimum Essential Eagle’s Medium. This medium was supplemented with 10% (v/v) Fetal Bovine Serum, 1% (v/v) Glutamine and 1% (v/v) Penicillin-Streptomycin, 1% non-essential amino acids. Cells were cultivated at 37 °C with 5% CO2 at saturated humidity.
These experiments were carried out as already described. HepG2 cells were cultured up to about 90% confluence, and 24 h before the experiment cells were seeded into a 96-well flat bottom black plate (50,000 cells per well). After 24 h, the medium was replaced and cells were incubated at 37 °C for 30 min with a 10 mM solution of the fluorescent WSP-1 probe, which is highly sensitive for H2S detection. After incubation, the supernatant was removed and replaced with different concentrations (100, 200, and 300 µM) of the tested compounds dissolved in HBSS buffer. […] ADT 100 µM was used as a slow H2S-donor reference compound. Data were analyzed by one-way ANOVA for repeated measures, followed by post hoc Bonferroni’s multiple comparison test. Results are expressed as mean ± SEM of 3 independent experiments in triplicate. Statistical significance was accepted at a level of p < 0.05.
Next, we assessed the intracellular H2S release of thioureas and thioamides in HepG2 cells. The compounds were tested at different concentrations (100–300 μM) to evaluate if the release was dose-dependent. We also assayed ADT-OH and TIA as reference H2S-donors, and 3a as a negative control. The results were normalized to the fluorescence signal obtained with 100 μM ADT-OH.

[6] = target: T1, FPR2; assay: FPR2 desensitization: inhibition of WKYMVM-induced Ca2+ mobilization in FPR2-HL60 cells; format: cell-based; set-up: expressed in transfected cells; host or cells: HL-60 cells; settings: 10 min preincubation, then 5 nM WKYMVM
Description: Finally, we assessed the ability of compounds to induce receptor desensitization at FPR2 by measuring the inhibition of Ca^2+ mobilization induced by subsequent treatment with a standard FPR2 agonist (IC50, Table 1) because FPR2 undergoes homologous desensitization after stimulation with agonists, resulting in functional antagonism (IC50, Table 1). […] We also evaluated the effects of the thiourea and thioamide derivatives on Ca^2+ mobilization in FPR1-HL60-transfected cells after stimulation with the FPR1 agonist (IC50, Table 1).

[7] = target: T1, FPR2; assay: cell-based
[8] = HepG2, tested concentrations 100-300 μM, 60 min

fold less potent at FPR2 than the corresponding urea/amide [4] | Ca2+ Mobilization HL60-FPR2 Efficacy [4] [%] | EC50 [7] [nM] | SMILES | MTT absorbance signal vs control ([2]; HepG2, 2 h incubation) | absorbance signal (MTT reduction to formazan) indicative of H2S release [3] | intracellular H2S release, WSP-1 fluorescence signal vs vehicle [5, 8] | Ca2+ Mobilization HL60-FPR2 IC50 (FPR2 desensitization) [6] | intracellular H2S release, WSP-1 fluorescence signal vs vehicle ([5]; HepG2, at 200 and 300 μM) | other results
– | – | – | N#Cc1ccc(C[C@H](NC(=O)Nc2ccc(F)cc2)C(=O)N2CCc3ccccc32)cc1 [3b, (S)-1-[3-(4-cyanophenyl)-1-(indolin-1-yl)-1-oxopropan-2-yl]-3-(4-fluorophenyl)urea] | – | – | – | – | – | protective and anti-inflammatory properties [1]: beneficial protective and anti-inflammatory properties at nanomolar doses
– | – | – | N#Cc1ccc(C[C@H](NC(=O)Nc2ccc(F)cc2)C(=O)N2CCc3ccc(F)cc32)cc1 [3c, (S)-1-[3-(4-cyanophenyl)-1-(6-fluoroindolin-1-yl)-1-oxopropan-2-yl]-3-(4-fluorophenyl)urea] | – | – | – | – | – | protective and anti-inflammatory properties [1]: beneficial protective and anti-inflammatory properties at nanomolar doses
– | – | – | N#Cc1ccc(C[C@H](NC(=S)Nc2ccc(F)cc2)C(=O)NCC2(c3ccc(F)c(Cl)c3)CC2)cc1 [5a, (S)-N-[[1-(3-Chloro-4-fluorophenyl)cyclopropyl]methyl]-3-(4-cyanophenyl)-2-[3-(4-fluorophenyl)thioureido]propanamide] | pronounced signal | did not give off any detectable absorbance signal | comparable to vehicle | – | – | MTT absorbance signal vs control ([2]; HepG2, 24 h incubation): higher than the control; Ca2+ Mobilization HL60-FPR2 EC50 ([4]; HL-60 cells transfected with human FPR2): inactive
more than 10 fold | 65 | 2200 ± 700 | N#Cc1ccc(C[C@H](NC(=S)Nc2ccc(F)cc2)C(=O)N2CCc3ccccc32)cc1 [5b, (S)-1-[3-(4-Cyanophenyl)-1-(indolin-1-yl)-1-oxopropan-2-yl]-3-(4-fluorophenyl)thiourea] | – | significant absorbance signal with slight dose-dependent effects | – | inactive | – | –
more than 10 fold | 105 | 12000 ± 32000 | N#Cc1ccc(C[C@H](NC(=S)Nc2ccc(F)cc2)C(=O)N2CCc3ccc(F)cc32)cc1 [5c] | pronounced signal | significant absorbance signal with slight dose-dependent effects | – | inactive | statistically significant increase in the fluorescent signal | –
more than 10 fold | 65 | 1700 ± 700 | N#Cc1ccc(C[C@H](NC(=S)Nc2ccc(Br)cc2)C(=O)N2CCc3ccccc32)cc1 [6b, (S)-1-(4-Bromophenyl)-3-[3-(4-cyanophenyl)-1-(indolin-1-yl)-1-oxopropan-2-yl]thiourea] | pronounced signal | – | – | – | statistically significant increase in the fluorescent signal | MTT absorbance signal vs control ([2]; HepG2, 24 h incubation): higher than the control; IC50 [6]: 2200 ± 400 nM
– | 145 | 2300 ± 800 | N#Cc1ccc(C[C@H](NC(=O)Nc2ccc(F)cc2)C(=S)NCC2(c3ccc(F)c(Cl)c3)CC2)cc1 [7a, (S)-N-[[1-(3-Chloro-4-fluorophenyl)cyclopropyl]methyl]-3-(4-cyanophenyl)-2-[3-(4-fluorophenyl)ureido]propanethioamide] | – | below the assay’s detection limit | significant fluorescence signal increase at all tested concentrations | submicromolar concentration | – | IC50 [6]: 300 ± 100 nM; intracellular level of H2S vs reference H2S donor ADT ([5]; HepG2, at 200 and 300 μM, p < 0.001 vs. ADT): more than the reference H2S donor ADT; levels of H2S release in HepG2 cells ([5]; summary of WSP-1 results): very high levels of H2S release
– | – | – | O=c1cc(-c2cccc(O)c2)ss1 [ADT-OH, 5-(5-hydroxyphenyl)-3H-1,2-dithiol-3-one, reference compound] | – | – | statistically significant increase in fluorescence | – | – | –
– | – | – | [Na+].[SH-] [NaHS, sodium hydrogen sulfide, reference compound] | – | strong dose-dependent signal | – | – | – | –
– | – | – | NC(=O)c1ccc(O)cc1 [TIA, 4-hydroxybenzamide, reference compound] | – | – | – | – | statistically significant increase in fluorescence | –

— PMC12291851, “Hydrogen Sulfide (H2S)-Donating Formyl Peptide Receptor 2 (FPR2) Agonists: Design, Synthesis, and Biological Evaluation in Primary Mouse Microglia Culture” (Antioxidants, 2025)
